# Measurements: patent US20230265151A1, “GIP/GLP1 CO-AGONIST COMPOUNDS” (priority 2020, published 2023)
# Read-outs that look alike come from different tables or passages of the source.
# What was measured:
# hGCGR = target: T1, hGCGR (Homo sapiens, UniProt P47871); assay: Functional cAMP formation (HTRF) in HEK-293 clonal cells expressing hGCGR, 0.1% bovine casein, without or with 1.0% human serum albumin; type: cell-based; settings: geometric mean
# T1 construct: expressed in transfected cells
# T1 sequence (P47871 26-477): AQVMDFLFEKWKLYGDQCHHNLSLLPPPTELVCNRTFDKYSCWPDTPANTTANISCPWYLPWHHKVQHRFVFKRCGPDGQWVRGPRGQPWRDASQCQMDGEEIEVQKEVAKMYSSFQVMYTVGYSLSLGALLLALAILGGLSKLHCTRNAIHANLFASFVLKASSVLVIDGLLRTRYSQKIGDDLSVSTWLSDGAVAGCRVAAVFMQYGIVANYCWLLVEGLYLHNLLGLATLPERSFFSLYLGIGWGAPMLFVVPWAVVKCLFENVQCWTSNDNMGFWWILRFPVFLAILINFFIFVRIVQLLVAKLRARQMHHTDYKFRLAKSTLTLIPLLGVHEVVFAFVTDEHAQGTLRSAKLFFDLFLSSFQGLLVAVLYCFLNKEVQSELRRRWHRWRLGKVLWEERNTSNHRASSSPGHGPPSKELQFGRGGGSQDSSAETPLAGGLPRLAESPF
# Method: (§1) After a 30-min incubation at 37° C., the resulting increase in intracellular cAMP is quantitatively determined using a CisBio cAMP Dynamic 2 HTRF Assay Kit (62AM4PEJ). Briefly, cAMP levels within the cell are detected by adding the cAMP-d2 conjugate in cell lysis buffer (10 µL) followed by the antibody anti-cAMP-Eu^3+-Cryptate, also in cell lysis buffer (10 µL). The resulting competitive assay is incubated for at least 60 min at room temperature, and then is detected using a PerkinElmer Envision® instrument with excitation at 320 nm and emission at 665 nm and 620 nm. Envision units (emission at 665 nm/620 nm* 10,000) are inversely proportional to the amount of cAMP present and are converted to nM cAMP per well us-ing a cAMP standard curve. […] A relative EC50 value and percent top (Emax) are derived by non-linear regression analysis using the percent maximal response vs. the concentration of peptide added, fitted to a four-parameter logistic equation.
# hGIPR = target: T2, hGIPR (Homo sapiens, UniProt P48546); assay: Functional cAMP formation (HTRF) in HEK-293 clonal cells expressing hGIPR, 0.1% bovine casein, without or with 1.0% human serum albumin; type: cell-based; settings: for EC50: hGIPR EC50, nM (SEM, n), cAMP, 0.1% bovine casein (no human serum albumin), geometric mean
# T2 construct: expressed in transfected cells
# T2 sequence (P48546 22-466): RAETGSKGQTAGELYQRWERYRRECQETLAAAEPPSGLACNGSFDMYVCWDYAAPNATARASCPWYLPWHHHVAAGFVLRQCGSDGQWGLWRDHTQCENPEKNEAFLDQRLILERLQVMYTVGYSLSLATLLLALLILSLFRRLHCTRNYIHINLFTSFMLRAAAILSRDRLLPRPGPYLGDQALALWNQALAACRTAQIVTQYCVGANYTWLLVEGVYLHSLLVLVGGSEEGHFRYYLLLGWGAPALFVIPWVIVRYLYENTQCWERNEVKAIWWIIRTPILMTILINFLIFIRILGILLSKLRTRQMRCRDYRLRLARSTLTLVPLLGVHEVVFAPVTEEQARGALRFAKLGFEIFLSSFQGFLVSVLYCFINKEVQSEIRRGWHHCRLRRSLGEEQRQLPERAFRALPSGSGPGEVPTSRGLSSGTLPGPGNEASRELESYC
# Method: as §1
# [1] = hGCGR EC50, nM (SEM, n), cAMP, incubated at 37° C., 0.1% bovine casein (no human serum albumin)
# [2] = HEK293, read-out: hGIPR Emax, % ± SEM, percent of maximal response to GIP(1-42)NH2, 37° C., 0.1% bovine casein, arithmetic mean
# [3] = cAMP, incubated at 37° C., 0.1% bovine casein (no human serum albumin), read-out: hGCGR EC50, nM (SEM, n)
# [4] = HEK293, percent of maximal response to GIP(1-42)NH2, 37° C., 0.1% bovine casein, arithmetic mean, read-out: hGIPR Emax, % ± SEM
SMILES,EC50 (hGCGR; [1]) [nM],Emax (hGIPR; [2]) [%],EC50 (hGIPR; incubated at 37° C.) [nM],EC50 (hGCGR; [3]) [nM],Emax (hGIPR; [4]) [%],other results
CC[C@H](C)[C@H](NC(=O)[C@H](CC(C)C)NC(=O)[C@](C)(Cc1ccc(O)cc1)NC(=O)[C@H](CCCCNC(=O)COCCOCCNC(=O)COCCOCCNC(=O)COCCOCCNC(=O)CC[C@H](NC(=O)CCCCCCCCCCCCC(=O)O)C(=O)O)NC(=O)[C@@H](NC(=O)[C@H](Cc1ccccc1)NC(=O)[C@H](CCC(=O)O)NC(=O)C(C)(C)NC(=O)[C@H](CCC(N)=O)NC(=O)[C@H](C)NC(=O)[C@H](CCCCNC(=O)COCCOCCNC(=O)COCCOCCNC(=O)COCCOCCNC(=O)CC[C@H](NC(=O)CCCCCCCCCCCCC(=O)O)C(=O)O)NC(=O)[C@H](CCCN)NC(=O)[C@H](CC(=O)O)NC(=O)[C@H](CC(C)C)NC(=O)[C@](C)(CC(C)C)NC(=O)[C@@H](NC(=O)[C@H](CO)NC(=O)[C@H](Cc1ccncc1)NC(=O)[C@H](CC(=O)O)NC(=O)[C@H](CO)NC(=O)[C@@H](NC(=O)[C@](C)(Cc1ccccc1F)NC(=O)[C@@H](NC(=O)CNC(=O)[C@H](CCC(=O)O)NC(=O)C(C)(C)NC(=O)[C@@H](N)Cc1ccc(O)cc1)[C@@H](C)O)[C@@H](C)O)[C@@H](C)CC)[C@@H](C)CC)C(=O)N[C@@H](CCC(=O)O)C(=O)NCC(=O)NCC(=O)N1CCC[C@H]1C(=O)N[C@@H](CO)C(=O)N[C@@H](CO)C(=O)NCC(=O)N[C@@H](C)C(=O)N1CCC[C@H]1C(=O)N1CCC[C@H]1C(=O)N1CCC[C@H]1C(=O)N[C@@H](CO)C(N)=O [Example 80],> 9950,92.4 ± 1.14,0.0245,–,–,–
CC[C@H](C)[C@H](NC(=O)[C@H](CC(C)C)NC(=O)[C@](C)(Cc1ccc(O)cc1)NC(=O)[C@@H](CCC(=O)O)NC(=O)[C@@H](NC(=O)[C@H](Cc1ccccc1)NC(=O)[C@H](CCC(=O)O)NC(=O)C(C)(C)NC(=O)[C@H](CCC(N)=O)NC(=O)[C@H](C)NC(=O)[C@H](CCCCNC(=O)COCCOCCNC(=O)COCCOCCNC(=O)CC[C@H](NC(=O)CCCCCCCCCCCCC(=O)O)C(=O)O)NC(=O)[C@H](CCCN)NC(=O)[C@H](CC(=O)O)NC(=O)[C@H](CC(C)C)NC(=O)[C@](C)(CC(C)C)NC(=O)[C@@H](NC(=O)C(C)(C)NC(=O)[C@@H](NC(=O)[C@H](CC(=O)O)NC(=O)[C@H](CO)NC(=O)[C@@H](NC(=O)[C@](C)(Cc1ccccc1)NC(=O)[C@@H](NC(=O)CNC(=O)[C@H](CCC(=O)O)NC(=O)C(C)(C)NC(=O)[C@@H](N)Cc1ccc(O)cc1)[C@@H](C)O)[C@@H](C)O)C(C)C)[C@@H](C)CC)[C@@H](C)CC)C(=O)N[C@@H](CCC(=O)O)C(=O)NCC(=O)NCC(=O)N[C@@H](CCCCNC(=O)COCCOCCNC(=O)COCCOCCNC(=O)CC[C@H](NC(=O)CCCCCCCCCCCCC(=O)O)C(=O)O)C(=O)N[C@@H](CO)C(=O)N[C@@H](CO)C(=O)NCC(=O)N[C@@H](C)C(=O)N1CCC[C@H]1C(=O)N1CCC[C@H]1C(=O)N1CCC[C@H]1C(=O)N[C@@H](CO)C(N)=O [Example 180],–,–,–,> 9950,86.8,–
CC[C@H](C)[C@H](NC(=O)[C@H](CC(C)C)NC(=O)[C@](C)(Cc1ccc(O)cc1)NC(=O)[C@@H](CCC(=O)O)NC(=O)[C@@H](NC(=O)[C@H](Cc1ccccc1)NC(=O)[C@H](CCC(=O)O)NC(=O)C(C)(C)NC(=O)[C@H](CCC(N)=O)NC(=O)[C@H](C)NC(=O)[C@H](CCCCNC(=O)COCCOCCNC(=O)COCCOCCNC(=O)CC[C@H](NC(=O)CCCCCCCCCCCCC(=O)O)C(=O)O)NC(=O)CNC(=O)[C@H](CC(=O)O)NC(=O)[C@H](CC(C)C)NC(=O)[C@](C)(CC(C)C)NC(=O)[C@@H](NC(=O)[C@H](CO)NC(=O)[C@H](Cc1ccncc1)NC(=O)[C@H](CC(=O)O)NC(=O)[C@H](CO)NC(=O)[C@@H](NC(=O)[C@](C)(Cc1ccccc1F)NC(=O)[C@@H](NC(=O)CNC(=O)[C@H](CCC(=O)O)NC(=O)C(C)(C)NC(=O)[C@@H](N)Cc1ccc(O)cc1)[C@@H](C)O)[C@@H](C)O)[C@@H](C)CC)[C@@H](C)CC)C(=O)N[C@@H](CCC(=O)O)C(=O)NCC(=O)NCC(=O)N[C@@H](CCCCNC(=O)COCCOCCNC(=O)COCCOCCNC(=O)CC[C@H](NC(=O)CCCCCCCCCCCCC(=O)O)C(=O)O)C(=O)N[C@@H](CO)C(=O)N[C@@H](CO)C(=O)NCC(=O)N[C@@H](C)C(=O)N1CCC[C@H]1C(=O)N1CCC[C@H]1C(=O)N1CCC[C@H]1C(=O)N[C@@H](CO)C(N)=O [Example 101],–,–,–,> 9950,92.1,–
CC[C@H](C)[C@H](NC(=O)[C@H](CCCN)NC(=O)[C@H](CC(=O)O)NC(=O)[C@H](CC(C)C)NC(=O)[C@](C)(CC(C)C)NC(=O)[C@@H](NC(=O)[C@H](CO)NC(=O)[C@H](Cc1ccncc1)NC(=O)[C@H](CC(=O)O)NC(=O)[C@H](CO)NC(=O)[C@@H](NC(=O)[C@](C)(Cc1ccccc1F)NC(=O)[C@@H](NC(=O)CNC(=O)[C@H](CCC(=O)O)NC(=O)C(C)(C)NC(=O)[C@@H](N)Cc1ccc(O)cc1)[C@@H](C)O)[C@@H](C)O)[C@@H](C)CC)C(=O)N[C@@H](C)C(=O)N[C@@H](CCC(N)=O)C(=O)NC(C)(C)C(=O)N[C@@H](CCCCNC(=O)COCCOCCNC(=O)COCCOCCNC(=O)CC[C@H](NC(=O)CCCCCCCCCOc1ccc(C(=O)O)cc1)C(=O)O)C(=O)N[C@@H](Cc1ccccc1)C(=O)N[C@H](C(=O)N[C@H](CCC(=O)O)C(=O)N[C@@](C)(Cc1ccc(O)cc1)C(=O)N[C@@H](CC(C)C)C(=O)N[C@H](C(=O)N[C@@H](CCC(=O)O)C(=O)NCC(=O)NCC(=O)N1CCC[C@H]1C(=O)N[C@@H](CO)C(=O)N[C@@H](CO)C(=O)NCC(=O)N[C@@H](C)C(=O)N1CCC[C@H]1C(=O)N1CCC[C@H]1C(=O)N1CCC[C@H]1C(=O)N[C@@H](CO)C(=O)N[C@@H](CCCCNC(=O)COCCOCCNC(=O)COCCOCCNC(=O)CC[C@H](NC(=O)CCCCCCCCCOc1ccc(C(=O)O)cc1)C(=O)O)C(N)=O)[C@@H](C)CC)[C@@H](C)CC [Example 276],–,–,–,–,–,"EC50 (hGCGR; hGCGR EC50, nM (SEM, n), 0.1% bovine casein and 1.0% human serum albumin, 37° C.): > 9950 nM; EC50 (hGCGR; hGCGR EC50, nM (SEM, n), cAMP, 37° C., 0.1% bovine casein (no human serum albumin)): > 9950 nM; Emax (hGIPR; HEK293, read-out: hGIPR Emax, % ± SEM, 0.1% bovine casein and 1.0% human serum albumin, 37° C., percent of maximal response to GIP(1-42)NH2): 91.4%; EC50 (hGIPR; 37° C.): 0.0134 nM"
CC[C@H](C)[C@H](NC(=O)[C@H](CC(C)C)NC(=O)[C@](C)(Cc1ccccc1)NC(=O)[C@H](CCCCNC(=O)COCCOCCNC(=O)COCCOCCNC(=O)CC[C@H](NC(=O)CCCCCCCCCCCCC(=O)O)C(=O)O)NC(=O)[C@@H](NC(=O)[C@H](Cc1ccccc1)NC(=O)[C@H](CCC(=O)O)NC(=O)C(C)(C)NC(=O)[C@H](CCC(N)=O)NC(=O)[C@H](C)NC(=O)[C@H](CCCCNC(=O)COCCOCCNC(=O)COCCOCCNC(=O)CC[C@H](NC(=O)CCCCCCCCCCCCC(=O)O)C(=O)O)NC(=O)[C@H](CCCN)NC(=O)[C@H](CC(=O)O)NC(=O)[C@H](CC(C)C)NC(=O)[C@](C)(CC(C)C)NC(=O)[C@@H](NC(=O)[C@H](CO)NC(=O)[C@H](Cc1ccncc1)NC(=O)[C@H](CC(=O)O)NC(=O)[C@H](CO)NC(=O)[C@@H](NC(=O)[C@](C)(Cc1ccccc1F)NC(=O)[C@@H](NC(=O)CNC(=O)[C@H](CCC(=O)O)NC(=O)C(C)(C)NC(=O)[C@@H](N)Cc1ccc(O)cc1)[C@@H](C)O)[C@@H](C)O)[C@@H](C)CC)[C@@H](C)CC)C(=O)N[C@@H](CCC(=O)O)C(=O)NCC(=O)NCC(=O)N1CCC[C@H]1C(=O)N[C@@H](CO)C(=O)N[C@@H](CO)C(=O)NCC(=O)N[C@@H](C)C(=O)N1CCC[C@H]1C(=O)N1CCC[C@H]1C(=O)N1CCC[C@H]1C(=O)N[C@@H](CO)C(N)=O [Example 83],> 9950,89.6 ± 7.35,0.0223,–,–,–
